The values below come from paper PMC6479253 (Assay and Drug Development Technologies, 2019).

The target of one test is T1, human Kir2.1 channels (Homo sapiens, UniProt P63252).
T1 sequence (P63252 1-427): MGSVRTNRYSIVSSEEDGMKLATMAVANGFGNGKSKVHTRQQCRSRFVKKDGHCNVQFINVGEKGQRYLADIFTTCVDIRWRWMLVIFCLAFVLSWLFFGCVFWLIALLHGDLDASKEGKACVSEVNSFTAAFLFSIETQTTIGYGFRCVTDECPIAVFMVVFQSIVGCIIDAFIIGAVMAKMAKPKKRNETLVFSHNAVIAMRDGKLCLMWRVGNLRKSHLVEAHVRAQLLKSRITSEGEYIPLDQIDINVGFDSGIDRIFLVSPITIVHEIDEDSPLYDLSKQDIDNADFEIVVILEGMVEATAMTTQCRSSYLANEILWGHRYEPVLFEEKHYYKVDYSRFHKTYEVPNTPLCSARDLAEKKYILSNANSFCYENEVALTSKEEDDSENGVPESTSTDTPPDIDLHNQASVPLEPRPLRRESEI
The experiment in a line: cell-based. Type of test: cell-based.

Test [1] has as its system Kir2.1. The settings on record: Xenopus oocytes, at −120 mV; ref Schram et al. 23; cited from earlier work.
Test [2] concerns Kir2.1. The note with it: HEK cells, at −90 mV; ref Shen et al. 43; cited from earlier work.
The next test concerns IK1 currents. The settings on record: 3 μM chloroquine, at −100 mV; cited from earlier work.
In test [3] the test system is Kir2.1. The settings on record: at −100 mV, manual patch-clamp; cited from earlier work. For orientation: In patch-clamp work, channel activity is measured electrically.

The IC50 is the midpoint of a concentration-inhibition curve.

Like-named read-outs stand apart in the source and are kept apart here.

Turning to `[Ba+2].[Cl-].[Cl-]` [Ba^2+], the “Hill coefficient (nH)” value on human Kir2.1 channels came to 1.03. Moreover, the results for the IC50 in the test with Kir2.1 [1] and in the test on Kir2.1 [2] were 16 µM and 7.9 µM, respectively.
Take `CCN(CC)CCCC(C)Nc1ccnc2cc(Cl)ccc12` (stereo not drawn) [Chloroquine, 4-N-(7-chloroquinolin-4-yl)-1-N,1-N-diethylpentane-1,4-diamine]: the “decrease of IK1 currents” value in the test with IK1 currents is 67%. On human Kir2.1 channels, the “Hill slope nH (95% CI)” value was 0.80 (0.76–0.83) and the IC50 came to 1.9 µM.
In the case of `CN(C)CCCN1c2ccccc2Sc2ccc(Cl)cc21` [Chlorpromazine, 3-(2-chlorophenothiazin-10-yl)-N,N-dimethylpropan-1-amine], at human Kir2.1 channels, the “Hill slope nH (95% CI)” value is reported as 1.7 (1.4–2.1) and 3.8 µM corresponded to half-maximal inhibition (IC50).
On to `COc1ccc(CNCc2cccc3ccccc23)cc1` [ML133, N-(4-methoxybenzyl)-1-(naphthalene-1-yl) methanamine], for which, on human Kir2.1 channels, the “Hill slope nH (95% CI)” value was 2.6 (2.2–3.1) and inhibition was half-maximal at 1.2 µM (IC50). Besides, the IC50 in the test with Kir2.1 [3] was 1.8 µM.
For `COc1ccc(CCCOC(Cn2ccnc2)c2ccc(OC)cc2)cc1` (stereo not drawn) [SKF-96365, 1-[2-(4-methoxyphenyl)-2-[3-(4-methoxyphenyl)propoxy]ethyl]imidazole], at human Kir2.1 channels, the “Hill slope nH (95% CI)” value is listed as 1.3 (1.1–1.5) and the IC50 stood at 4.7 µM.
With `COc1ccc(C2CCN(CC[C@H]3CCOc4ccccc43)CC2)cc1OC` [Terikalant, 1-[2-[(4S)-3,4-dihydro-2H-chromen-4-yl]ethyl]-4-(3,4-dimethoxyphenyl)piperidine], on human Kir2.1 channels, the “Hill slope nH (95% CI)” value was 0.98 (0.88–1.1) and the IC50 is 8.4 µM.
